In patent US10111435B2, “Herbicidal compositions containing N-(1,3,4-oxadiazol-2-yl)-aryl carboxylic acid amides” (BAYER CROPSCIENCE AKTIENGESELLSCHAFT, priority 2013, dated 2018):

Key:
Type in all cases: in vivo
[1] = system: Lolium multiflorum (LOLMU); assay: greenhouse post-emergence herbicidal efficacy against LOLMU
In short: (§1)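 Sandy loam pots (8 cm) were seeded and the seedlings raised under optimal conditions; treatment followed post-emergence by spraying at 300 L/ha; effects were then rated visually at 14 and 21 days; measured combination values were set against the Colby expectation, E^C=A+B−A×B/100.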

Phalaris minor (PHAMI) = assay: greenhouse post-emergence herbicidal efficacy against PHAMI
In short: as §1

[2] = system: Matricaria inodora (MATIN); assay: greenhouse post-emergence herbicidal efficacy against MATIN
In short: as §1

Setaria viridis (SETVI) = assay: greenhouse post-emergence herbicidal efficacy against SETVI
In short: (§2)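 Seeds sown in sandy loam pots were sprayed post-emergence in the greenhouse at 300 L/ha with combinations or single active ingredients. Visual damage versus untreated plants scored 0–100% at 14 and 21 days.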

Solanum nigrum (SOLNI) = assay: greenhouse post-emergence herbicidal efficacy against SOLNI
Experimental: (§3) All trials whose results are shown were conducted in a greenhouse by the methodology specified below. The effect of the inventive herbicidal compositions was examined on the following harmful plants 14 and 21 days after application:
(§4) Echinochloa crus-galli (ECHCG), Eleusine indica (ELEIN), Setaria viridis (SETVI), Amaranthus retroflexus (AMARE), Chenopodium album (CHEAL), Kochia scoparia (KCHSC), Solanum nigrum (SOLNI), Avena fatua (AVEFA), Bromus sterilis (BROST), Lolium multiflorum (LOLMU), Phalaris minor (PHAMI), Poa annua (POAAN), Galium aparine (GALAP), Matricaria inodora (MATIN) and Polygonum convolvulus (POLCO).
(§5) The harmful plant seeds were sown in pots (diameter 8 cm) with sandy loam soil and germinated under optimal conditions. The inventive herbicidal compositions or the active ingredients alone were applied post-emergence to the planted pots with a spray volume of 300 L/ha. The trial was conducted in a greenhouse under optimum growth conditions. The herbicidal effects were assessed visually by comparison of untreated and treated plants. The percentages mean: 0%=no effects, 100%=the plants die off completely). The percentages are used to calculate interactions between individual treatments and combination treatments according to S. R. Colby, Weeds 15, pages 20 to 22 (1967).
(§6) The abbreviations mean: • a.i.=active ingredient • E^C=expected value according to Colby (E^C=A+B−A×B/100) • Diff: =difference (%) of measured value from expected value (%) (measured value minus expected value)
(§7) Assessment: • measured value E is greater than E^C:->synergism (+ diff.) • measured value E equals E^C:->additive effect • measured value E is smaller than E^C:->antagonism(− diff.)

[3] = system: Echinochloa crus-galli (ECHCG); assay: greenhouse post-emergence herbicidal efficacy against ECHCG
In short: as §2

Avena fatua (AVEFA) = assay: greenhouse post-emergence herbicidal efficacy against AVEFA
In short: as §1

[4] = system: Polygonum convolvulus (POLCO); assay: greenhouse post-emergence herbicidal efficacy against POLCO
In short: as §1

Eleusine indica (ELEIN) = assay: greenhouse post-emergence herbicidal efficacy against ELEIN
In short: as §2

Bromus sterilis (BROST) = assay: greenhouse post-emergence herbicidal efficacy against BROST
In short: as §1

Galium aparine (GALAP) = assay: greenhouse post-emergence herbicidal efficacy against GALAP
In short: as §1

DIGSA = assay: greenhouse post-emergence herbicidal efficacy against DIGSA
Experimental: as §3, §5, §6, §7

[5] = system: Amaranthus retroflexus (AMARE); assay: greenhouse post-emergence herbicidal efficacy against AMARE
Experimental: as §3, §4, §5, §6, §7

Poa annua (POAAN) = assay: greenhouse post-emergence herbicidal efficacy against POAAN
In short: as §1

[6] = system: Chenopodium album (CHEAL); assay: greenhouse post-emergence herbicidal efficacy against CHEAL
In short: as §2

Kochia scoparia (KCHSC) = assay: greenhouse post-emergence herbicidal efficacy against KCHSC
Experimental: as §3, §4, §5, §6, §7

[7] = 14 days after application, 10 g of a.i./ha
[8] = 21 days after application, g of a.i./ha: A1-36 10, flurtamone 80
[9] = 14 days after application, 2.5 g of a.i./ha
[10] = 21 days after application, g of a.i./ha: A1-36 2.5, flurtamone 80
[11] = 21 days after application, g of a.i./ha: A1-36 2.5, flurtamone 320
[12] = 21 days after application, g of a.i./ha: A1-36 10, flurtamone 320
[13] = 21 days after application, 2 g of a.i./ha
[14] = 14 days after application, 0.5 g of a.i./ha
[15] = 14 days after application, 2 g of a.i./ha
[16] = 21 days after application, 0.5 g of a.i./ha
[17] = 14 days after application, g of a.i./ha: A1-60 2.5, isoproturon 400
[18] = 14 days after application, g of a.i./ha: A1-60 2.5, isoproturon 1600
[19] = 14 days after application, g of a.i./ha: A1-60 10, isoproturon 400
[20] = 14 days after application, g of a.i./ha: A1-60 10, isoproturon 1600
[21] = 21 days after application, g of a.i./ha: A1-60 10, isoproturon 400
[22] = 21 days after application, g of a.i./ha: A1-60 10, isoproturon 1600
[23] = 21 days after application, g of a.i./ha: A1-60 2.5, isoproturon 400
[24] = 14 days after application, 1 g of a.i./ha
[25] = 14 days after application, 4 g of a.i./ha
[26] = 21 days after application, 4 g of a.i./ha
[27] = 21 days after application, 1 g of a.i./ha
[28] = 21 days after application, 20 g of a.i./ha
[29] = 14 days after application, 5 g of a.i./ha
[30] = 14 days after application, 20 g of a.i./ha
[31] = 21 days after application, 5 g of a.i./ha

SMILES: Cc1nnc(NC(=O)c2ccc(C(F)(F)F)c(S(C)(=O)=O)c2Cl)o1 [A1-36]
- Efficacy [1, 7]: 3%
- Efficacy [1, 8]: 0%
- Efficacy (Phalaris minor (PHAMI); [9]): 0%
- Efficacy (Phalaris minor (PHAMI); [7]): 30%
- Efficacy (Phalaris minor (PHAMI); [8]): 20%
- Efficacy [2, 9]: 15%
- Efficacy [2, 7]: 40%
- Efficacy [2, 10]: 0%
- Efficacy [2, 11]: 0%
- Efficacy [2, 8]: 15%
- Efficacy [2, 12]: 15%
- Efficacy (Setaria viridis (SETVI); [13]): 65%
- Efficacy (Solanum nigrum (SOLNI); [13]): 50%
- Efficacy [3, 14]: 10%
- Efficacy [3, 15]: 40%
- Efficacy [3, 16]: 0%
- Efficacy [3, 13]: 20%
- Efficacy (Avena fatua (AVEFA); [9]): 0%
- Efficacy (Avena fatua (AVEFA); [7]): 15%
- Efficacy (Avena fatua (AVEFA); [10]): 10%
- Efficacy (Avena fatua (AVEFA); [11]): 10%
- Efficacy (Avena fatua (AVEFA); [8]): 15%
- Efficacy (Avena fatua (AVEFA); [12]): 15%
- Efficacy [4, 9]: 0%
- Efficacy [4, 8]: 3%
- Efficacy [4, 12]: 3%
- Efficacy (Eleusine indica (ELEIN); [15]): 50%
- Efficacy (Eleusine indica (ELEIN); [13]): 30%
- Efficacy (Bromus sterilis (BROST); [9]): 0%
- Efficacy (Bromus sterilis (BROST); [10]): 5%
- Efficacy (Bromus sterilis (BROST); [11]): 5%
- Efficacy (Galium aparine (GALAP); [9]): 5%
- Efficacy (Galium aparine (GALAP); [7]): 25%
- Efficacy (Galium aparine (GALAP); [10]): 0%
- Efficacy (Galium aparine (GALAP); [8]): 25%
- Efficacy (Galium aparine (GALAP); [12]): 25%
- Efficacy (DIGSA; [14]): 10%
- Efficacy (DIGSA; [16]): 10%
- Efficacy [5, 16]: 20%
- Efficacy [5, 13]: 70%

SMILES: Cc1nnc(NC(=O)c2ccc(C(F)(F)F)c([S+](C)[O-])c2C)o1 (stereo not drawn) [A1-60]
- Efficacy [1, 17]: 0%
- Efficacy [1, 18]: 0%
- Efficacy [1, 19]: 0%
- Efficacy [1, 20]: 0%
- Efficacy [1, 21]: 3%
- Efficacy [1, 22]: 3%
- Efficacy (Phalaris minor (PHAMI); [17]): 10%
- Efficacy (Phalaris minor (PHAMI); [19]): 25%
- Efficacy (Phalaris minor (PHAMI); [20]): 25%
- Efficacy (Phalaris minor (PHAMI); [23]): 0%
- Efficacy (Phalaris minor (PHAMI); [21]): 20%
- Efficacy [2, 23]: 0%
- Efficacy [2, 21]: 40%
- Efficacy (Setaria viridis (SETVI); [24]): 70%
- Efficacy (Setaria viridis (SETVI); [25]): 85%
- Efficacy (Setaria viridis (SETVI); [26]): 70%
- Efficacy (Setaria viridis (SETVI); [27]): 50%
- Efficacy (Poa annua (POAAN); [18]): 0%
- Efficacy (Poa annua (POAAN); [19]): 10%
- Efficacy (Poa annua (POAAN); [20]): 10%
- Efficacy (Poa annua (POAAN); [21]): 20%
- Efficacy (Solanum nigrum (SOLNI); [24]): 65%
- Efficacy (Solanum nigrum (SOLNI); [25]): 65%
- Efficacy (Solanum nigrum (SOLNI); [26]): 30%
- Efficacy (Solanum nigrum (SOLNI); [27]): 20%
- Efficacy [3, 24]: 65%
- Efficacy [3, 25]: 90%
- Efficacy [3, 26]: 75%
- Efficacy [3, 27]: 40%
- Efficacy (Avena fatua (AVEFA); [17]): 0%
- Efficacy (Avena fatua (AVEFA); [19]): 0%
- Efficacy (Avena fatua (AVEFA); [20]): 0%
- Efficacy (Avena fatua (AVEFA); [23]): 0%
- Efficacy (Avena fatua (AVEFA); [21]): 5%
- Efficacy (Avena fatua (AVEFA); [22]): 5%
- Efficacy (Eleusine indica (ELEIN); [24]): 70%
- Efficacy (Eleusine indica (ELEIN); [25]): 90%
- Efficacy (Eleusine indica (ELEIN); [26]): 75%
- Efficacy (Eleusine indica (ELEIN); [27]): 40%
- Efficacy (Bromus sterilis (BROST); [17]): 0%
- Efficacy (Bromus sterilis (BROST); [18]): 0%
- Efficacy (Bromus sterilis (BROST); [19]): 15%
- Efficacy (Bromus sterilis (BROST); [20]): 15%
- Efficacy (Bromus sterilis (BROST); [21]): 5%
- Efficacy (Bromus sterilis (BROST); [22]): 5%
- Efficacy (Galium aparine (GALAP); [17]): 25%
- Efficacy (Galium aparine (GALAP); [18]): 25%
- Efficacy (Galium aparine (GALAP); [19]): 30%
- Efficacy (Galium aparine (GALAP); [20]): 30%
- Efficacy (Galium aparine (GALAP); [23]): 0%
- Efficacy (Galium aparine (GALAP); 21 days after application, g of a.i./ha: A1-60 2.5, isoproturon 1600): 0%
- Efficacy (Galium aparine (GALAP); [21]): 0%
- Efficacy (Galium aparine (GALAP); [22]): 0%
- Efficacy (DIGSA; [25]): 93%
- Efficacy (DIGSA; [26]): 70%
- Efficacy [5, 25]: 70%
- Efficacy [5, 26]: 60%
- Efficacy [5, 27]: 20%

SMILES: CCOC(=O)[C@@H](C)Oc1ccc(Oc2nc3ccc(Cl)cc3o2)cc1 [fenoxaprop-P-ethyl]
- Efficacy (Setaria viridis (SETVI); [28]): 80%
- Efficacy [6, 29]: 0%
- Efficacy [6, 30]: 0%
- Efficacy [6, 31]: 0%
- Efficacy [6, 28]: 0%
- Efficacy (Solanum nigrum (SOLNI); [29]): 0%
- Efficacy (Solanum nigrum (SOLNI); [30]): 0%
- Efficacy (Solanum nigrum (SOLNI); [31]): 0%
- Efficacy (Solanum nigrum (SOLNI); [28]): 0%
- Efficacy (DIGSA; [29]): 30%
- Efficacy (DIGSA; [31]): 10%
- Efficacy (Kochia scoparia (KCHSC); [29]): 0%
- Efficacy (Kochia scoparia (KCHSC); [30]): 0%
- Efficacy (Kochia scoparia (KCHSC); [28]): 0%
- Efficacy [5, 29]: 0%
- Efficacy [5, 30]: 0%
